Test results from patent publication EP2213288A1 (Welte, Karl, priority 2009, dated 2010).

Tests used:
[1] = test system: promyelocytic leukemia cell line HL-60; test: Myeloid differentiation of HL-60 cells
Method: Granulocytic differentiation was characterized by FACS analysis of cells stained with antibody specific to CD16 (Immunotools), CD15 (BD Pharmigen) or CD11b (BD Pharmigen) and by morphological assessment of Wright-Giemsa-stained cytospin slides. […] We cultured HL-60 cells in the presence of 10 ng ml^-1 human rhG-CSF(Cell systems Biotechnoogy), 10 ng ml^-1 human rhNAMPT (Phoenix Pharmaceuticals) or 0.1µM ATRA (Sigma). For the measurement of NAD^+, 0.5 M ice-cold HClO4 was added to the cells, or cell culture supernatants or plasma; after 2 min, 100µl of supernatants was collected by centrifugation at 3,000g for 5 min, was 20µl K2HPO4 (1 M) added with cooling on ice and adjusted pH to 7.2-7.4 with KOH. 50µl of supernatant was given to the reaction mixture containing 0.1 M sodiumpyrophosphate-semicarbazid (Sigma) (pH 8.8), absolute ethanol and dH2O, NAD^+ spectrophotometrically was assessed at 339 nm at room temperature (25°C) as as mean difference in absorbance before (A1) and 6 min after (A2) addition of alcohol dehydrogenase (Roche).

CD34^+ cells = test: NAMPT inhibition (FK866) or G-CSFR knock-down in G-CSF- or NAMPT-stimulated CD34+ cells
Text: NAMPT is induced by G-CSF, so it was further analyzed whether this enzyme is required for G-CSF-triggered granulopoiesis.
DNA oligonucleotides corresponding to position 642 bp to 660 bp of the human CSF3R gene sequence were chemically synthesized. These nucleotides also contained overhang sequences from a 5' BglII- and a 3'HindIII- restriction sites. The numbering of the first nucleotide of the shRNAs refers to the ATG start codon. The oligonucleotide sequences was as follows […] (Seq. ID No. 3). The oligonucleotides were inserted into the BglII/HindIII-digested pSUPER-derived plasmid to generate pSUPER-CSF3R_642 and verified the isolated clone by DNA sequencing. To generate lentiviral transgenic plasmids containing shRNA expression cassettes located in the U3 region of the […]3'-LTR pRRL,PPT.SF.DsRedEx.pre was used. pRRL.PPT.SF.DsRedEx.pre is a derivative of the standard lentiviral vector pRRL.PPT.PGK, DsRedEx.pre (kindly provided by Luigi Naldini, Milano, Italy) using an internal SFFV promoter. To generate the lentiviral CSF3R_642-SR plasmid, the pSUPER-CSF3R_642 was digested with SmaI and HincII and ligated the resulting DNA fragments (360 bp) into the SnaBI site of the pRRL.PPT.SF.DsRedEx,pre. The lentiviral plasmid encodes RFPEXPRESS as reporter gene.

[2] = test system: CD34^+ bone marrow progenitor cells from healthy individuals; test: Granulocytic/myeloid differentiation of cultured CD34+ cells from healthy individuals (FACS, qRT-PCR, ELISA, NAD+ measurement); assay type: cell-based, human; details: FACS analysis; nicotinamide 1 mM or 10 mM; lentiviral transduction MOI 1-2
Method: Bone marrow and peripheral blood mononuclear cells were isolated by Ficoll-Hypaque gradient centrifugation (Amersham Biosciences) and positively selected bone marrow CD34^+ and CD33^+ cells by sequential immunomagnetic labeling with corresponding magnetic cell-sorting beads (Miltenyi Biotech). Peripheral blood PMNs were isolated by Ficoll-Hypaque gradient centrifugation and by subsequent hypotonic lysis of erythrocytes in cell pellet, Cells were counted and viability was assessed by trypan blue dye exclusion. The purity of sorted CD34^+ cells, CD33^+ cells and PMNs was more than 96% as assessed by FACS analysis and by staining with May-Grünwald-Giemsa.
Purified PMNs and CD33^+ cells were cultured in RPMI-1640 medium supplemented with 1% heat-inactivated autologous human serum with or without addition of 10 ng ml^-1 of recombinant human G-CSF (rhG-CSF) (Cell Systems Biotechnology). […] For assessment of G-CSFR protein expression cells were stained with unconjugated antibody to mouse G-CSFR and secondary FITC-conjugated antibody and measured G-CSFR expression by FACS. […] G-CSF protein was measured by G-CSF-specific ELISA from R&D Systems and NAMPT protein by NAMPT specific carboxy-terminal enzyme immunometric assay (Phoenix Pharmaceuticals).

[3] = 25-50 mg kg^-1 d^-1, subjects with type 1 diabetes; cited from earlier work
[4] = Treatment of healthy individuals with vitamin B3, blood cell analysis; assay type: in vivo, human

## CC1=C(/C=C/C(C)=C/C=C/C(C)=C/C(=O)O)C(C)(C)CCC1 [ATRA, all-trans-retinoid acid]
[1]; 10 ng ml^-1 rhG-CSF, 10 ng ml^-1 rhNAMPT or 0.1µM ATRA, or lentiviral transduction
  myeloid (granulocytic) differentiation of HL-60 cells: differentiates into granulocytes
[1]; compared with untreated controls
  levels of iNAD^+ as well as mRNAs of SIRT1, C/EBPα and C/EBPβ: Elevated levels

## O=C(/C=C/c1cccnc1)NCCCCC1CCN(C(=O)c2ccccc2)CC1 [FK866]
CD34^+ cells; 1 nM FK866
  cell viability and proliferation: no effect
CD34^+ cells; NAMPT activity inhibited with FK866
  G-CSF induction of C/EBPα or C/EBPβ mRNA expression and G-CSFR mRNA or protein expression: unable to induce
CD34^+ cells; cells pretreated with FK866
  G-CSF or iNAD^+ levels in G-CSF- or NAMPT-stimulated cells: no increase
CD34^+ cells; pretreatment with 1 nM FK866, then G-CSF
  G-CSF-triggered granulocytic differentiation: substantially abrogated

## NC(=O)c1cccnc1 [vitamin B3, nicotinamide]
[2]
  myeloid differentiation of CD34^+ cells: induced myeloid differentiation of CD34^+ cells in a dose-dependent manner
[3]
  side effects: no side effects
[4]; 10-20 mg kg^-1 d^-1, within 2 d
  increase in the neutrophilic granulocyte content: up to twofold
[4]; compared with steady-state levels
  iNAD^+ levels in PMNs: Increased
[4]; healthy individuals
  C/EBPα and C/EBPβ mRNA levels in bone marrow CD34^+ cells, CD33^+ cells and in peripheral blood PMNs: upregulation
  CD34^+ hematopoietic progenitor cells in peripheral blood: mobilisation
  Other blood cell lineages: unaffected
  decline of neutrophil numbers to the physiological level after discontinuation: 2-3 d
  time after initiation of treatment at which increased neutrophil numbers were detected: 1 to 2 days
[4]; six healthy individuals, 10 mg per kg per d for 1 week
  numbers of neutrophilic granulocytes: significant increases
[4]; treated healthy individuals
  adverse effects: no adverse effects
